Source: patent publication US20060154243A1 (priority 2003, published 2006)

Experiments:
Type in all cases: binding, human
[1] = test system: serum 6 (individual 6)
[2] = test system: serum 1a (individual 1, early serum)
[3] = test system: sera SARS-green, SARS-yellow, 1a, 1b, 2, 6, 37, 62 and London
[4] = test system: serum SARS-yellow
[5] = test system: serum 62 (individual 62)
[6] = test system: control serum Blood-bank (commercial negative donor pooled serum)
[7] = test system: serum SARS-green
[8] = test system: serum London
[9] = test system: serum 1b (individual 1, late serum)
[10] = test system: serum 2 (individual 2)
[11] = test system: serum 37 (individual 37)
[12] = test system: control serum LUMC (pooled serum of ten healthy hospital workers)

Sequence | Binding of serum 6 to linear peptides of Orf14 of SARS-CoV TOR2 [1] | Binding of serum 1a to linear peptides of Orf14 of SARS-CoV TOR2 [2] | Recognition of the peptide by sera of individuals infected by SARS-CoV, form recognized [3] | Binding of serum SARS-yellow to linear peptides of Orf14 of SARS-CoV TOR2 [4] | Binding of serum 62 to linear peptides of Orf14 of SARS-CoV TOR2 [5] | Control Serum Blood-Bank Looped peptides [6] | Control serum Blood-bank linear peptides [6] | Binding of serum SARS-green to linear peptides of Orf14 of SARS-CoV TOR2 [7] | Binding of serum London to linear peptides of Orf14 of SARS-CoV TOR2 [8] | Binding of serum 1b to linear peptides of Orf14 of SARS-CoV TOR2 [9] | Binding of serum 2 to linear peptides of Orf14 of SARS-CoV TOR2 [10] | Binding of serum 37 to linear peptides of Orf14 of SARS-CoV TOR2 [11] | Control serum LUMC linear peptides [12] | Control serum LUMC looped peptides [12]
LPPCYNFLKEQHCQK | 0.2 | 0.3 | recognized in looped form | 0.0 | 0.2 | 0.9 | 0.2 | 0.0 | 0.1 | 0.2 | 0.2 | 0.3 | 0.2 | 0.6
NFLKEQHCQKASTQR | 0.4 | 0.4 | recognized in looped form | 0.3 | 0.3 | 0.6 | 0.5 | 0.3 | 0.4 | 0.3 | 0.4 | 0.5 | 0.7 | 0.7
PCYNFLKEQHCQKAS | 0.3 | 0.3 | recognized in looped form | 0.1 | 0.1 | 0.7 | 0.0 | 0.1 | 0.2 | 0.2 | 0.1 | 0.4 | 0.1 | 0.5
PPCYNFLKEQHCQKA | 0.2 | 0.3 | recognized in looped form | 0.0 | 0.2 | 0.8 | 0.2 | 0.1 | 0.1 | 0.2 | 0.1 | 0.3 | 0.1 | 0.6
QHCQKASTQREAEAA | 0.3 | 0.4 | recognized in looped form | 0.3 | 0.4 | 1.1 | 0.4 | 0.3 | 0.5 | 0.4 | 0.6 | 0.5 | 0.4 | 1.2
QKASTQREAEAAVKP | 0.3 | 0.4 | recognized in looped form | 0.1 | 0.3 | 0.7 | 0.3 | 0.1 | 0.3 | 0.3 | 0.4 | 0.4 | 0.3 | 0.8
